{"source": "patent US8853264B2", "about": "“Use of lignan compounds for treating or preventing inflammatory disease” (Newtree Industry Co., Ltd., priority 2005, dated 2014)", "key": {"RAW264.7 cells": {"tested_on": "RAW264.7 cells", "test": "MTT cytotoxicity assay on RAW264.7 cells", "format": "cell-based", "conditions": "macelignan 1-20 μM, 24 hours", "experimental": "In order to examine the effect of macelignan obtained in <Example 1> on the production of inflammatory response mediators, the macrophage RAW264.7 cell line was used. The macrophage RAW264.7 cell line (ATCC TIB-71) was purchased from American Tissue Culture Collection (Rockville, Md., USA). The cell line was cultured in DMEM (Dulbecco's Modified Eagle's Medium, Gibco, USA) supplemented with 10% heat inactivated FBS (fetal bovine serum, Gibco, USA), 100 U/ml penicillin G and 100 μg/ml streptomycin, in a 5% CO2 incubator at 37° C. In order to examine the effect of the inventive macelignan on the viability of RAW 264.7 cells, analysis was performed based on the reduction of MTT changed into a purple formazan product by mitochondrial dehydrogenase (Hayon T. et al., Leuk. Lymphoma. 44(11): 1957-1962, 2003). 1×10^6 cells/ml of RAW264.7 cells were inoculated into RPMI 1640 medium, and after 6 hours, were treated with the inventive macelignan at concentrations up to 1-80 μM/ml. After 24 hours, the viability of the cells was measured by the MTT assay."}, "CD4 T cells": {"tested_on": "CD4 T cells", "test": "T cell proliferation by MTT assay", "format": "cell-based, mouse", "conditions": "antibody (CD3 & CD28) stimulation; macelignan 0.01-100 μg/ml", "source_text": "In order to investigate how macelignan directly affects T cells, the cells were stimulated and treated with macelignan at the same time. Wild type and OT-II transgenic mouse CD4 T cells, and antigen presenting cells were used (T cell receptor of CD4 T cells of OT-II transgenic mouse cells is specific for OVA peptide323-339). Wild type CD4 T cells were stimulated with anti-CD3 and anti-CD28 antibodies (BD Pharmigen, San Diego, Calif.), and OT-II transgenic CD4 T cells were stimulated with OVA peptide (Baylor College of Medicine Protein Co-facility). The effect of macelignan was determined by the degree of proliferation of the T cells by MTT assay and by the level of cytokine production. After culturing for 4 days, the level of cytokine production was measured from the supernatant by ELISA. MTT assay was performed using cell proliferation assay kit I (Roche). Cytokines IL-4, IL-17 and IFN-g were detected. ELISA was performed using primary antibody, secondary antibody, streptavidin-alkaline phosphatase (BD Pharmigen) and phosphatase substrate (Sigma-Aldrich, St. Louis, Mo.) according to the manufacturer's instructions."}, "IgE": {"tested_on": "IgE", "test": "Total IgE in serum, mite antigen-induced atopic dermatitis", "format": "in vivo, NC/Nga mice", "conditions": "for IgE: 2 weeks, serum; for total IgE level compared to the positive control group: p<0.01", "experimental": "(§1) 8-week-old NC/Nga mice (20-25 g) were purchased from Chungang Lab. Animal. After adapting for 1 week, the NC/Nga mouse was anesthetized with 90% ethyl ether (Ducsan, Korea) and hair was removed from the occipital region and the back of the mouse using depilatory cream (Reckitt Benckiser, France). After allowing micro wound healing for a day, 100 mg of mite antigen cream (Biostir, Inc. Japan) comprising Dermatophagoides farina, which causes atopic dermatitis, as a main ingredient was evenly applied on the ear, occipital region and back, 3 times a week (for 5 weeks, from week 9 to week 13). 2 hours before application of the mite antigen cream, 4% SDS solution was applied at the same area to increase transdermal absorption of the mite antigen cream by inducing the breakdown of skin fats and cuticle layer. From week 3 following the application, IgE value was measured to quantitate the degree of atopic dermatitis. Also during the drug treatment period (week 12 to week 13), 100 mg of the mite antigen cream was applied 3 times a week to prevent spontaneous healing of the atopic dermatitis.\n(§2) In order to induce atopic dermatitis, 100 mg of mite antigen cream was applied on the ear, occipital region and back of NC/Nga mouse (9 to 11 weeks old), except for the negative control group, 3 times a week, 2 hours after the application of 4% SDS solution. Three weeks later, it was observed whether atopic dermatitis was induced by checking skin rash, erythema, cornification, or the like. Atopic dermatitis was induced in all groups except for the negative control group. For drug treatment and evaluation of therapeutic effect, mice were grouped into 12 groups, 6 oral administration groups and 6 topical application groups (each consisting of negative control group, positive control group, macelignan low conc. group, macelignan high conc. group, nutmeg extract low conc. group, and nutmeg extract high conc. group), with n=5 per cage. During the following drug treatment and evaluation period of 2 weeks (12 to 13 weeks old), the negative control groups, which had not been treated with 4% SDS solution and mite antigen cream, were treated with physiological saline (oral administration group) or base cream (topical application group) every day, and the positive control groups, which had been treated with 100 mg of mite antigen cream 2 hours after application of 4% SDS solution, 3 times every week, were treated with physiological saline (oral administration group) or base cream (topical application group). The oral administration groups were treated with 100 mg of mite antigen cream 2 hours after application of 4% SDS solution, 3 times every week, and were treated with macelignan or nutmeg extract at low concentration (50 mg/kg/day) or high concentration (150 mg/kg/day) every day. The topical application groups were treated with 100 mg of mite antigen cream 2 hours after application of 4% SDS solution, 3 times every week, and were treated with macelignan cream or nutmeg extract cream at low concentration (20 mg/kg/day) or high concentration (60 mg/kg/day) every day. Transepidermal water loss (TEWL), skin hydration and erythema index were measured one day before the end of the test. Serum was obtained by retro-orbital blood sampling. After the end of the test (14 weeks old) spleen and skin tissues from occipital region and back were sampled and stored at −70° C. ALN (axillary lymph node) was stored in DMEM containing 2% FBS (fetal bovine serum). The skin tissues were stored in 10% formalin solution.\nBlood was taken by retro-orbital blood sampling using a capillary tube (Chase Scientific Glass, Inc., USA), which was centrifuged at 13,000 rpm to obtain serum. IgE level was measured using a mouse IgE ELISA kit (Immunology Consultants Laboratory, Inc., USA)."}, "[1]": {"test": "Skin barrier recovery test (TEWL, skin hydration, erythema index), atopic dermatitis model", "format": "in vivo, NC/Nga mice", "experimental": "as §1, §2\nOne day before the end of the experiment, TEWL, skin hydration and erythema index were measured to quantitatively compare recovery of skin barrier. TEWL was measured with a tewameter (TM300), skin hydration with a corneometer (CM825), and erythema index with a mexameter (MX18)."}, "[2]": {"conditions": "oral administration 50 mg/kg/day"}, "[3]": {"conditions": "oral administration 150 mg/kg/day"}, "[4]": {"conditions": "oral administration 50 and 150 mg/kg"}, "[5]": {"conditions": "oral administration 50 and 150 mg/kg, p<0.01"}, "[6]": {"conditions": "topical application 20 mg/kg/day"}, "[7]": {"conditions": "topical application 60 mg/kg/day"}, "[8]": {"conditions": "topical application 20 and 60 mg/kg, p<0.01"}}, "data": [{"smiles": "COc1cc(C[C@H](C)[C@H](C)Cc2ccc3c(c2)OCO3)ccc1O", "note": "(single isomer, unassigned) [macelignan]", "values": [{"measurement": "viability of the RAW264.7 cells", "setting": "RAW264.7 cells", "result": "no significant effect"}, {"measurement": "proliferation of T cells", "setting": "CD4 T cells", "result": "no effect"}, {"measurement": "IgE", "setting": "IgE; [2]", "result": "19.6 ± 13.5", "unit": "µg/mL"}, {"measurement": "IgE", "setting": "IgE; [3]", "result": "16.6 ± 5.3", "unit": "µg/mL"}, {"measurement": "total IgE level compared to the positive control group", "setting": "IgE; [4]", "result": "statistically significant decrease in total IgE level"}, {"measurement": "total IgE level compared to the positive control group", "setting": "IgE; topical application 20 and 60 mg/kg", "result": "statistically significant decrease in total IgE level"}, {"measurement": "IgE", "setting": "IgE; topical application (cream) 20 mg/kg/day", "result": "22.1 ± 3.6", "unit": "µg/mL"}, {"measurement": "IgE", "setting": "IgE; topical application (cream) 60 mg/kg/day", "result": "18.6 ± 4.1", "unit": "µg/mL"}, {"measurement": "Erythema Index", "setting": "[1]; [2]", "result": "198.5 ± 46.8"}, {"measurement": "Skin Hydration", "setting": "[1]; [2]", "result": "5.0 ± 0.8", "unit": "AU"}, {"measurement": "TEWL", "setting": "[1]; [2]", "result": "17.6 ± 8.1", "unit": "g/hr · m^2"}, {"measurement": "Erythema Index", "setting": "[1]; [3]", "result": "190 ± 24.4"}, {"measurement": "Skin Hydration", "setting": "[1]; [3]", "result": "6.4 ± 2.8", "unit": "AU"}, {"measurement": "TEWL", "setting": "[1]; [3]", "result": "21.5 ± 9.2", "unit": "g/hr · m^2"}, {"measurement": "skin hydration compared to the positive control group", "setting": "[1]; [4]", "result": "effect of increasing skin hydration"}, {"measurement": "TEWL compared to the positive control group", "setting": "[1]; [5]", "result": "statistically significant effect of suppressing TEWL"}, {"measurement": "erythema index compared to the positive control group", "setting": "[1]; [5]", "result": "statistically significant effect of decreasing erythema index"}, {"measurement": "Erythema Index", "setting": "[1]; [6]", "result": "163.3 ± 4.0"}, {"measurement": "Skin Hydration", "setting": "[1]; [6]", "result": "12.4 ± 3.9", "unit": "AU"}, {"measurement": "TEWL", "setting": "[1]; [6]", "result": "25.8 ± 3.1", "unit": "g/hr · m^2"}, {"measurement": "Erythema Index", "setting": "[1]; [7]", "result": "190 ± 24"}, {"measurement": "Skin Hydration", "setting": "[1]; [7]", "result": "13.4 ± 4.7", "unit": "AU"}, {"measurement": "TEWL", "setting": "[1]; [7]", "result": "26.2 ± 4.9", "unit": "g/hr · m^2"}, {"measurement": "TEWL compared to the positive control group", "setting": "[1]; [8]", "result": "statistically significant effect of suppressing TEWL"}, {"measurement": "erythema index compared to the positive control group", "setting": "[1]; [8]", "result": "statistically significant effect of decreasing erythema index"}, {"measurement": "skin hydration compared to the positive control group", "setting": "[1]; [8]", "result": "statistically significant effect of increasing skin hydration"}]}]}
